Data: patent US20250230172A1 (Vanqua Bio, Inc., priority 2021, published 2025)

Target: T1, GCase (Homo sapiens, UniProt P04062)
T1 construct: endogenous in cells; host or cells: HeLa cells
T1 sequence (P04062 40-536): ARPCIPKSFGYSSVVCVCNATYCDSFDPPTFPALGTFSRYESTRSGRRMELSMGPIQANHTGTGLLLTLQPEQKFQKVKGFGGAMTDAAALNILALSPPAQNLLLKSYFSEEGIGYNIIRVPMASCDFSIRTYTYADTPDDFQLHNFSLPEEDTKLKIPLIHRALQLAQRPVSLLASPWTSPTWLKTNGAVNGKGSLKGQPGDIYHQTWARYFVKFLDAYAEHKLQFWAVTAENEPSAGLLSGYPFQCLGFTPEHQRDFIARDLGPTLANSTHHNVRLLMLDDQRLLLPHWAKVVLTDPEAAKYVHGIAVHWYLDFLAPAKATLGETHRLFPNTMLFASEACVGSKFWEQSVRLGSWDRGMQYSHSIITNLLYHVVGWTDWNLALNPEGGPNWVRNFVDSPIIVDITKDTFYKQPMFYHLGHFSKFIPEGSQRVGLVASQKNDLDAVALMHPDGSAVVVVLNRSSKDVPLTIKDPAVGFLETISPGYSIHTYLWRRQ
Test: live cell PFB assay in HELA cells for activation of GCase
Assay type: cell-based
Experimental: Exemplary compounds were evaluated for activation of GCase in a live cell PFB assay in HELA cells (essentially as described in Ysselstein et al., “LRRK2 kinase activity regulates lysosomal glucocerebrosidase in neurons derived from Parkinson's disease patients” Nature Communications (2019) 10:5570). […] EC50 ranges: A: <10 μM; B: >10-50 μM; C: >50-100 μM; D: >100 μM.

Structure (SMILES) | EC50
O=C(c1ccc2ccn(CC3COC3)c2c1)N1CC[C@@H]2CN(c3cc(C(F)(F)F)ccn3)C[C@@H]2C1 (racemic) [Compound 9, rac-6-[(3aR,7aS)-2-[4-(trifluoromethyl)pyridin-2-yl]-octahydro-1H-pyrrolo[3,4-c]pyridine-5-carbonyl]-1-[(oxetan-3-yl)methyl]-1H-indole] | 10 to 50 µM
FC(F)Cn1ncc2ncc(N3CC[C@@H]4CN(c5cncc(C(F)(F)F)c5)C[C@@H]4C3)nc21 (racemic) [Compound 10, rac-3-[(3aR,7aS)-5-[1-(2,2-difluoroethyl)-1H-pyrazolo[3,4-b]pyrazin-6-yl]-octahydro-1H-pyrrolo[3,4-c]pyridin-2-yl]-5-(trifluoromethyl)pyridine] | 10 to 50 µM
FC(F)Cn1ncc2ncc(N3C[C@H]4CCN(c5cc(C(F)(F)F)ccn5)C[C@H]4C3)nc21 (racemic) [Compound 11] | 10 to 50 µM
FC(F)Cn1ncc2ncc(N3CC[C@@H]4CN(c5ccc(C(F)(F)F)nc5)C[C@@H]4C3)nc21 (racemic) [Compound 12, rac-5-[(3aR,7aS)-5-[1-(2,2-difluoroethyl)-1H-pyrazolo[3,4-b]pyrazin-6-yl]-octahydro-1H-pyrrolo[3,4-c]pyridin-2-yl]-2-(trifluoromethyl)pyridine] | 10 to 50 µM
FC(F)(F)Cn1ncc2ncc(N3CC[C@@H]4CN(c5cc(C(F)(F)F)ccn5)C[C@@H]4C3)nc21 (racemic) [Compound 13] | 10 to 50 µM
FC(F)Cn1ncc2ncc(N3C[C@H]4CCN(c5cncc(C(F)(F)F)c5)C[C@H]4C3)nc21 (racemic) [Compound 14, rac-3-[(3aR,7aR)-2-[1-(2,2-difluoroethyl)-1H-pyrazolo[3,4-b]pyrazin-6-yl]-octahydro-1H-pyrrolo[3,4-c]pyridin-5-yl]-5-(trifluoromethyl)pyridine] | 10 to 50 µM
FC(F)Cn1ncc2ncc(N3CC[C@@H]4CN(c5cnccc5C(F)(F)F)C[C@@H]4C3)nc21 (racemic) [Compound 15, rac-3-[(3aR,7aS)-5-[1-(2,2-difluoroethyl)-1H-pyrazolo[3,4-b]pyrazin-6-yl]-octahydro-1H-pyrrolo[3,4-c]pyridin-2-yl]-4-(trifluoromethyl)pyridine] | 10 to 50 µM
O=C(c1ccc2ccn(C3COC3)c2c1)N1CC[C@@H]2CN(c3cc(C(F)(F)F)ccn3)C[C@@H]2C1 (racemic) [Compound 16, rac-6-[(3aR,7aS)-2-[4-(trifluoromethyl)pyridin-2-yl]-octahydro-1H-pyrrolo[3,4-c]pyridine-5-carbonyl]-1-(oxetan-3-yl)-1H-indole] | 10 to 50 µM
FC(F)Cn1ncc2ncc(N3C[C@H]4CCN(c5ncccc5C(F)(F)F)C[C@H]4C3)nc21 (racemic) [Compound 17] | 10 to 50 µM
FC(F)Cn1ncc2ncc(N3C[C@H]4CCN(c5ccc(C(F)(F)F)cn5)C[C@H]4C3)nc21 (racemic) [Compound 18] | 10 to 50 µM
FC(F)(F)c1ccnc(N2C[C@H]3CCN(c4cncc(-c5nncs5)n4)C[C@H]3C2)c1 (racemic) [Compound 19, rac-2-[(3aR,7aS)-2-[4-(trifluoromethyl)pyridin-2-yl]-octahydro-1H-pyrrolo[3,4-c]pyridin-5-yl]-6-(1,3,4-thiadiazol-2-yl)pyrazine] | > 100 µM
FC(F)Cn1ncc2ncc(N3C[C@H]4CCN(c5ccc(C(F)(F)F)nc5)C[C@H]4C3)nc21 (racemic) [Compound 20, rac-5-[(3aR,7aR)-2-[1-(2,2-difluoroethyl)-1H-pyrazolo[3,4-b]pyrazin-6-yl]-octahydro-1H-pyrrolo[3,4-c]pyridin-5-yl]-2-(trifluoromethyl)pyridine] | 10 to 50 µM
FC(F)Cn1ncc2ncc(N3C[C@H]4CCN(c5ccncc5C(F)(F)F)C[C@H]4C3)nc21 (racemic) [Compound 22, rac-4-[(3aR,7aR)-2-[1-(2,2-difluoroethyl)-1H-pyrazolo[3,4-b]pyrazin-6-yl]-octahydro-1H-pyrrolo[3,4-c]pyridin-5-yl]-3-(trifluoromethyl)pyridine] | < 10 µM
FC(F)Cn1ncc2ncc(N3C[C@H]4CCN(c5ccnc(C(F)(F)F)c5)C[C@H]4C3)nc21 (racemic) [Compound 23, rac-4-[(3aR,7aR)-2-[1-(2,2-difluoroethyl)-1H-pyrazolo[3,4-b]pyrazin-6-yl]-octahydro-1H-pyrrolo[3,4-c]pyridin-5-yl]-2-(trifluoromethyl)pyridine] | 10 to 50 µM
FC(F)Cn1ncc2ncc(N3C[C@H]4CCN(c5cnccc5C(F)(F)F)C[C@H]4C3)nc21 (racemic) [Compound 24, rac-3-[(3aR,7aR)-2-[1-(2,2-difluoroethyl)-1H-pyrazolo[3,4-b]pyrazin-6-yl]-octahydro-1H-pyrrolo[3,4-c]pyridin-5-yl]-4-(trifluoromethyl)pyridine] | 10 to 50 µM
FC(F)Cn1ncc2ncc(N3CC[C@@H]4CN(c5ccncc5C(F)(F)F)C[C@@H]4C3)nc21 (racemic) [Compound 25] | > 100 µM

More lines, now with the values ahead:

EC50 | Structure (SMILES)
< 10 µM | FC(F)(F)c1ccnc(N2C[C@H]3CCN(c4cnc5cnn(C6COC6)c5n4)C[C@H]3C2)c1 (racemic) [Compound 1]
< 10 µM | FC(F)Cn1ncc2ncc(N3CC[C@@H]4CN(c5cccnc5C(F)(F)F)C[C@@H]4C3)nc21 (racemic) [Compound 2, rac-3-[(3aR,7aS)-5-[1-(2,2-difluoroethyl)-1H-pyrazolo[3,4-b]pyrazin-6-yl]-octahydro-1H-pyrrolo[3,4-c]pyridin-2-yl]-2-(trifluoromethyl)pyridine]
< 10 µM | FC(F)Cn1ncc2ncc(N3CC[C@@H]4CN(c5cc(C(F)(F)F)ccn5)C[C@@H]4C3)nc21 (racemic) [Compound 3]
< 10 µM | FC(F)Cn1ncc2ncc(N3C[C@H]4CCN(c5cccnc5C(F)(F)F)C[C@H]4C3)nc21 (racemic) [Compound 4, rac-3-[(3aR,7aR)-2-[1-(2,2-difluoroethyl)-1H-pyrazolo[3,4-b]pyrazin-6-yl]-octahydro-1H-pyrrolo[3,4-c]pyridin-5-yl]-2-(trifluoromethyl)pyridine]
< 10 µM | FC(F)Cn1ncc2ncc(N3CC[C@@H]4CN(c5ncccc5C(F)(F)F)C[C@@H]4C3)nc21 (racemic) [Compound 5]
< 10 µM | FC(F)Cn1ncc2ncc(N3C[C@H]4CCN(c5cccc(C(F)(F)F)n5)C[C@H]4C3)nc21 (racemic) [Compound 6]
< 10 µM | FC(F)Cn1ncc2ncc(N3CC[C@@H]4CN(c5cccc(C(F)(F)F)n5)C[C@@H]4C3)nc21 (racemic) [Compound 7]
< 10 µM | FC(F)Cn1ncc2ncc(N3CC[C@@H]4CN(c5ccc(C(F)(F)F)cn5)C[C@@H]4C3)nc21 (racemic) [Compound 8]
< 10 µM | FC(F)Cn1ncc2ncc(N3CC[C@@H]4CN(c5ccnc(C(F)(F)F)c5)C[C@@H]4C3)nc21 (racemic) [Compound 21, rac-4-[(3aR,7aS)-5-[1-(2,2-difluoroethyl)-1H-pyrazolo[3,4-b]pyrazin-6-yl]-octahydro-1H-pyrrolo[3,4-c]pyridin-2-yl]-2-(trifluoromethyl)pyridine]
